# Source: PubChem BioAssay AID732 (Emory University Molecular Libraries Screening Center, 2007)
# Where “and” joins values, the source holds several entries; their conditions need not be identical. Identical values can stand only once. Calls of active or inactive are those of the source. The rule behind the calls is not given here.
# Tested on: in vivo angiogenesis, blood vessel count
# Assay: angiogenesis inhibition in living animals, in vivo study, HTS (AID 732);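 note: zebrafish embryos dosed at one day post fertilization; 0% = reference inhibitor and 100% = plate mean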
# Conditions: stronger effect = lower value;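 tested at 30 µM in the well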
row,SMILES,vessel count % control
1,CCCCS(=N)(=O)CCC(N)C(=O)O (centres undefined),137% (inactive)
2,Clc1cc(I)cc(Cl)c1NC1=NCCN1,80.6% (inactive)
3,CN1CCN(c2ccc3ccccc3n2)CC1,104% (inactive)
4,O=C(O)[C@@H]1C[C@@H](C(=O)O)N1,99.6% (inactive)
5,N=C(N)SCCc1cccc(CCSC(=N)N)c1,106% (inactive)
6,Nc1ncnc2c1ncn2C1CCCO1 (centres undefined),101% (inactive)
7,CCCN1C[C@H](CSC)C[C@@H]2c3cccc4[nH]cc(c34)C[C@H]21,96.8% (inactive)
8,CN(C)CCC(c1ccc(Cl)cc1)c1ccccn1 (centres undefined),128% (inactive)
9,CCN1C(=O)C=CC1=O,104% (inactive)
10,O=C1c2ccccc2-c2n[nH]c3cccc1c23,107% (inactive)
11,NC(=O)OCC(COC(N)=O)c1ccccc1,62.7% (inactive)
12,Cc1nc(N=Nc2ccc(S(=O)(=O)O)cc2S(=O)(=O)O)c(COP(=O)(O)O)c(C=O)c1O,110% (inactive)
13,O=C(CCCN1CCC(O)(c2cccc(C(F)(F)F)c2)CC1)c1ccc(F)cc1,60.2% (inactive)
14,CNC(=O)[C@H]1O[C@@H](n2cnc3c(NCc4ccc(N)cc4)ncnc32)C(O)[C@H]1O (some centres undefined),134% (inactive)
15,C#CCN1C(C)=C(C(=O)OC)C(c2cccc([N+](=O)[O-])c2)C(C(=O)OCC)=C1C (centres undefined),132% (inactive)
16,O=C(O)CCCCCCCC(=O)O,95.3% (inactive)
17,CC(=O)NNC(=O)N1Cc2ccccc2Oc2ccc(Cl)cc21,0% (inactive)
18,CC(C)NC[C@H](O)COc1cccc2[nH]ccc12,97.6% (inactive) and 70.7% (inactive)
19,OCCN1CCN(CC/C=C2/c3ccccc3Sc3ccc(C(F)(F)F)cc32)CC1,110% (inactive)
20,NCCCCC(=O)O,84.3% (inactive)
21,Cc1cc(O)c2c(c1)C(=O)c1cc(O)cc(O)c1C2=O,87.5% (inactive)
22,NCC(CC(=O)O)c1ccc(Cl)cc1 (centres undefined),100% (inactive)
23,CN1CCN2c3ccccc3Cc3ccccc3C2C1 (centres undefined),72.3% (inactive)
24,NC(=S)c1ccc[n+]([C@@H]2O[C@@H](COP(=O)([O-])OP(=O)(O)OC[C@H]3O[C@@H](n4cnc5c(N)ncnc54)C(OP(=O)(O)O)[C@H]3O)C(O)C2O)c1 (some centres undefined),101% (inactive)
25,Cc1nc2c(OCc3ccccc3)cccn2c1CC#N,120% (inactive)

row,SMILES,vessel count % control
1,CCNC(=O)C1OC(n2cnc3c(NCc4ccccc4)ncnc32)C(O)C1O (centres undefined),110% (inactive)
2,CCN(CC)CCOC(=O)c1ccc(N)cc1,112% (inactive)
3,CC(N=C(NC#N)Nc1ccncc1)C(C)(C)C (centres undefined),98.9% (inactive)
4,C[C@@H]1O[C@H](C[N+](C)(C)C)CS1,89.1% (inactive)
5,COC(=O)C1=C(C)NC(C)=C(C(=O)OC)C1c1ccccc1[N+](=O)[O-],112% (inactive)
6,Cc1cccc(C)c1OCC(C)N (centres undefined),99.4% (inactive)
7,CC(C)NC[C@@H](O)c1ccc(O)c(O)c1,108% (inactive)
8,O=S(=O)(c1cccc2c(I)cccc12)N1CCCNCC1,114% (inactive)
9,CCCc1c(OCCCOc2ccc(OCC(=O)O)cc2)ccc(C(C)=O)c1O,92.9% (inactive)
10,COc1cc2c(CCNC(C)=O)c[nH]c2cc1O,105% (inactive)
11,CC(=O)O[C@H]1C(=O)[C@@]2(C)C([C@H](OC(=O)c3ccccc3)[C@]3(O)C[C@H](OC(=O)[C@H](O)[C@@H](NC(=O)c4ccccc4)c4ccccc4)C(C)=C1C3(C)C)[C@]1(OC(C)=O)CO[C@@H]1C[C@@H]2O (some centres undefined),82.3% (inactive)
12,CCOC(=O)c1ncn2c1CN(C)C(=O)c1cc(F)ccc1-2,98.9% (inactive)
13,NCCCC(N)(C(=O)O)C(F)F (centres undefined),80.5% (inactive)
14,NNCCc1ccccc1,104% (inactive)
15,COc1ccc(CCNC[C@@H](O)c2ccc(O)cc2)cc1OC,105% (inactive)
16,CCCCC/C=C\C/C=C\C/C=C\C/C=C\CCCC(=O)NCC(=O)O,83.7% (inactive)
17,CC[C@@H]1C(=O)OC[C@@H]1Cc1cncn1C,82.3% (inactive) and 90.8% (inactive)
18,Cc1cc(NC(=O)Nc2ccc3c(ccn3C)c2)sn1,112% (inactive)
19,CCCCCC(O)c1cccc(OCc2ccc3ccccc3n2)c1 (centres undefined),83.4% (inactive)
20,N=C(N)SCCN,110% (inactive)
21,CC1C(=O)N(C)C(=O)c2nc[nH]c21 (centres undefined),98.5% (inactive)
22,CC[C@H](NC(=O)c1c(C)c(-c2ccccc2)nc2ccccc12)c1ccccc1,126% (inactive)
23,Cc1nc(N=Nc2cc(S(=O)(=O)O)c3cc([N+](=O)[O-])cc(S(=O)(=O)O)c3c2)c(COP(=O)(O)O)c(C=O)c1O,93.5% (inactive)
24,Clc1cccc(N2CCNCC2)c1,101% (inactive)
